Test results taken from ChEMBL document CHEMBL3046555, “Synthesis and Microbiological Evaluation of Novel [N-Acetyl-2,6-Diarylpiperidin-4-YL]-5-Spiro-4-Acetyl-2-(Acetylamino)-2-1,3,4-Thiadiazolines” (2004).
Values after ≈ are worked out from the molar mass of the structure shown. Active and inactive are the calls of the source. The rule behind the calls is not given here.

Columns and labels:
Enterococcus faecalis [1] = test: Antibacterial activity against Enterococcus faecalis after 24 hr by two-fold serial dilution method; type: functional
Aspergillus niger = test: Antifungal activity against Aspergillus niger after 72 to 96 hr by two-fold serial dilution method; type: functional
Candida [2] = test: Antifungal activity against Candida-6 after 72 to 96 hr by two-fold serial dilution method; type: functional
Escherichia coli = test: Antibacterial activity against Escherichia coli after 24 hr by two-fold serial dilution method; type: functional
Candida [3] = test: Antifungal activity against Candida-51 after 72 to 96 hr by two-fold serial dilution method; type: functional
Pseudomonas aeruginosa [4] = test: Antibacterial activity against Pseudomonas aeruginosa after 24 hr by two-fold serial dilution method; type: functional
Aspergillus flavus [5] = test: Antifungal activity against Aspergillus flavus after 72 to 96 hr by two-fold serial dilution method; type: functional
Cryptococcus neoformans [6] = test: Antifungal activity against Cryptococcus neoformans after 72 to 96 hr by two-fold serial dilution method; type: functional
Bacillus subtilis = test: Antibacterial activity against Bacillus subtilis after 24 hr by two-fold serial dilution method; type: functional
Klebsiella pneumoniae [7] = test: Antibacterial activity against Klebsiella pneumoniae after 24 hr by two-fold serial dilution method; type: functional
Cryptococcus neoformans [8] = test: Antifungal activity against Cryptococcus neoformans at 100 ug/ml after 72 to 96 hr by two-fold serial dilution method; type: functional, organism-based
Aspergillus flavus [9] = test: Antifungal activity against Aspergillus flavus at 100 ug/ml after 72 to 96 hr by two-fold serial dilution method; type: functional, organism-based
Candida [10] = test: Antifungal activity against Candida-51 at 100 ug/ml after 72 to 96 hr by two-fold serial dilution method; type: functional, organism-based
Enterococcus faecalis [11] = test: Antibacterial activity against Enterococcus faecalis at 100 ug/ml after 24 hr by two-fold serial dilution method; type: functional, organism-based
Klebsiella pneumoniae [12] = test: Antibacterial activity against Klebsiella pneumoniae at 100 ug/ml after 24 hr by two-fold serial dilution method; type: functional, organism-based
Pseudomonas aeruginosa [13] = test: Antibacterial activity against Pseudomonas aeruginosa at 100 ug/ml after 24 hr by two-fold serial dilution method; type: functional, organism-based
Candida [14] = test: Antifungal activity against Candida-6 at 100 ug/ml after 72 to 96 hr by two-fold serial dilution method; type: functional, organism-based

| SMILES | MIC (Enterococcus faecalis [1]) | MIC (Aspergillus niger) | MIC (Candida [2]) | MIC (Escherichia coli) | MIC (Candida [3]) | MIC (Pseudomonas aeruginosa [4]) | MIC (Aspergillus flavus [5]) | MIC (Cryptococcus neoformans [6]) | MIC (Bacillus subtilis) | MIC (Klebsiella pneumoniae [7]) | inhibition (Cryptococcus neoformans [8]) | inhibition (Aspergillus flavus [9]) | inhibition (Candida [10]) | inhibition (Enterococcus faecalis [11]) | inhibition (Klebsiella pneumoniae [12]) | inhibition (Pseudomonas aeruginosa [13]) | inhibition (Candida [14]) |
| --- | --- | --- | --- | --- | --- | --- | --- | --- | --- | --- | --- | --- | --- | --- | --- | --- | --- |
| COc1ccc(C2CC3(CC(c4ccc(OC)cc4)N2C(C)=O)SC(NC(C)=O)=NN3C(C)=O)cc1 (stereo not given) | 25 mg/L (≈ 49 µM) | 25 mg/L (≈ 49 µM) | 25 mg/L (≈ 49 µM) | 25 mg/L (≈ 49 µM) | 50 mg/L (≈ 97.9 µM) | 50 mg/L (≈ 97.9 µM) | 25 mg/L (≈ 49 µM) | 12.5 mg/L (≈ 24.5 µM) | 25 mg/L (≈ 49 µM) | 12.5 mg/L (≈ 24.5 µM) |  |  |  |  |  |  |  |
| COc1ccc(C2CC3(SC(NC(C)=O)=NN3C(C)=O)C(C)C(c3ccc(OC)cc3)N2C(C)=O)cc1 (stereo not given) | 25 mg/L (≈ 47.7 µM) | 25 mg/L (≈ 47.7 µM) | 50 mg/L (≈ 95.3 µM) | 25 mg/L (≈ 47.7 µM) | 25 mg/L (≈ 47.7 µM) | 25 mg/L (≈ 47.7 µM) | 25 mg/L (≈ 47.7 µM) | 6.25 mg/L (≈ 11.9 µM) | 25 mg/L (≈ 47.7 µM) | 6.25 mg/L (≈ 11.9 µM) |  |  |  |  |  |  |  |
| CC(=O)NC1=NN(C(C)=O)C2(CC(c3ccc(Cl)cc3)N(C(C)=O)C(c3ccc(Cl)cc3)C2)S1 (stereo not given) | 25 mg/L (≈ 48.1 µM) | 25 mg/L (≈ 48.1 µM) | 50 mg/L (≈ 96.3 µM) | 50 mg/L (≈ 96.3 µM) | 50 mg/L (≈ 96.3 µM) | 25 mg/L (≈ 48.1 µM) | 50 mg/L (≈ 96.3 µM) | 25 mg/L (≈ 48.1 µM) | 50 mg/L (≈ 96.3 µM) | 25 mg/L (≈ 48.1 µM) |  |  |  |  |  |  |  |
| CC(=O)NC1=NN(C(C)=O)C2(CC(c3ccc(C)cc3)N(C(C)=O)C(c3ccc(C)cc3)C2C)S1 (stereo not given) | 50 mg/L (≈ 101 µM) | 50 mg/L (≈ 101 µM) | 50 mg/L (≈ 101 µM) | 50 mg/L (≈ 101 µM) | 100 mg/L (≈ 203 µM) | 50 mg/L (≈ 101 µM) | 100 mg/L (≈ 203 µM) |  | 100 mg/L (≈ 203 µM) | 25 mg/L (≈ 50.7 µM) | inactive |  |  |  |  |  |  |
| CC(=O)NC1=NN(C(C)=O)C2(CC(c3ccc(C)cc3)N(C(C)=O)C(c3ccc(C)cc3)C2)S1 (stereo not given) | 100 mg/L (≈ 209 µM) | 50 mg/L (≈ 104 µM) | 50 mg/L (≈ 104 µM) | 100 mg/L (≈ 209 µM) | 100 mg/L (≈ 209 µM) | 100 mg/L (≈ 209 µM) |  |  | 100 mg/L (≈ 209 µM) | 100 mg/L (≈ 209 µM) | inactive | inactive |  |  |  |  |  |
| CC(=O)NC1=NN(C(C)=O)C2(CC(c3ccc(Cl)cc3)N(C(C)=O)C(c3ccc(Cl)cc3)C2C)S1 (stereo not given) | 12.5 mg/L (≈ 23.4 µM) | 25 mg/L (≈ 46.9 µM) | 25 mg/L (≈ 46.9 µM) | 25 mg/L (≈ 46.9 µM) | 25 mg/L (≈ 46.9 µM) | 25 mg/L (≈ 46.9 µM) | 50 mg/L (≈ 93.7 µM) | 12.5 mg/L (≈ 23.4 µM) | 50 mg/L (≈ 93.7 µM) | 12.5 mg/L (≈ 23.4 µM) |  |  |  |  |  |  |  |
| CN[C@@H]1[C@H](O[C@H]2[C@H](O[C@H]3[C@H](O)[C@@H](O)[C@H](N=C(N)N)[C@@H](O)[C@@H]3N=C(N)N)O[C@@H](C)[C@]2(O)C=O)O[C@@H](CO)[C@H](O)[C@H]1O [STREPTOMYCIN] | 50 mg/L (≈ 86 µM) |  |  | 12.5 mg/L (≈ 21.5 µM) |  | 25 mg/L (≈ 43 µM) |  |  | 12.5 mg/L (≈ 21.5 µM) | 25 mg/L (≈ 43 µM) |  |  |  |  |  |  |  |
| CC(=O)NC1=NN(C(C)=O)C2(CC(c3ccccc3)N(C(C)=O)C(c3ccccc3)C2)S1 (stereo not given) |  | 100 mg/L (≈ 222 µM) |  | 50 mg/L (≈ 111 µM) |  |  |  |  | 100 mg/L (≈ 222 µM) |  | inactive | inactive | inactive | inactive | inactive | inactive | inactive |
| C[C@@H]1[C@H](O)[C@@H](C)/C=C/C=C/C=C/C=C/C=C/C=C/C=C/[C@H](O[C@@H]2O[C@H](C)[C@@H](O)[C@H](N)[C@@H]2O)C[C@@H]2O[C@](O)(C[C@@H](O)C[C@@H](O)[C@H](O)CC[C@@H](O)C[C@@H](O)CC(=O)O[C@H]1C)C[C@H](O)[C@H]2C(=O)O [AMPHOTERICIN B] |  | 50 mg/L (≈ 54.1 µM) | 25 mg/L (≈ 27.1 µM) |  | 25 mg/L (≈ 27.1 µM) |  | 50 mg/L (≈ 54.1 µM) | 25 mg/L (≈ 27.1 µM) |  |  |  |  |  |  |  |  |  |
| CC(=O)NC1=NN(C(C)=O)C2(CC(c3ccccc3)N(C(C)=O)C(c3ccccc3)C2C)S1 (stereo not given) | 100 mg/L (≈ 215 µM) | 50 mg/L (≈ 108 µM) |  | 50 mg/L (≈ 108 µM) |  |  | 100 mg/L (≈ 215 µM) |  | 100 mg/L (≈ 215 µM) |  | inactive |  | inactive |  | inactive | inactive | inactive |
| CC1(C)S[C@@H]2[C@H](NC(=O)Cc3ccccc3)C(=O)N2[C@H]1C(=O)O [PENICILLIN G] | 12.5 mg/L (≈ 37.4 µM) |  |  | 50 mg/L (≈ 150 µM) |  | 50 mg/L (≈ 150 µM) |  |  | 25 mg/L (≈ 74.8 µM) | 12.5 mg/L (≈ 37.4 µM) |  |  |  |  |  |  |  |
